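Following 48 hours of exposure in 96-well plates, responses at five concentrations were used to interpolate endpoints linearly. TGI marks complete inhibition of growth.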
Experiments:
Test in all cases: growth of human tumour cells (NCI), 48 h
A549 NSCLC = test system: A549 NSCLC
T-47D breast = test system: T-47D breast
NCI/ADR-RES ovarian = test system: NCI/ADR-RES ovarian
SF-268 CNS = test system: SF-268 CNS
HOP-92 NSCLC = test system: HOP-92 NSCLC
EKVX NSCLC = test system: EKVX NSCLC
786-0 renal = test system: 786-0 renal
RXF 393 renal = test system: RXF 393 renal
HCC-2998 colon = test system: HCC-2998 colon
TK-10 renal = test system: TK-10 renal
IGROV1 ovarian = test system: IGROV1 ovarian
SK-MEL-5 melanoma = test system: SK-MEL-5 melanoma
U251 CNS = test system: U251 CNS
HT29 colon = test system: HT29 colon
UACC-257 melanoma = test system: UACC-257 melanoma
HCT-116 colon = test system: HCT-116 colon
OVCAR-8 ovarian = test system: OVCAR-8 ovarian
SF-539 CNS = test system: SF-539 CNS
M14 melanoma = test system: M14 melanoma
SNB-75 CNS = test system: SNB-75 CNS

Row | Structure (SMILES) | TGI (A549 NSCLC) [µM] | TGI (T-47D breast) [µM] | TGI (NCI/ADR-RES ovarian) [µM] | TGI (SF-268 CNS) [µM] | TGI (HOP-92 NSCLC) [µM] | TGI (EKVX NSCLC) [µM] | TGI (786-0 renal) [µM] | TGI (RXF 393 renal) [µM] | TGI (HCC-2998 colon) [µM] | TGI (TK-10 renal) [µM] | TGI (IGROV1 ovarian) [µM] | TGI (SK-MEL-5 melanoma) [µM] | TGI (U251 CNS) [µM] | TGI (HT29 colon) [µM] | TGI (UACC-257 melanoma) [µM] | TGI (HCT-116 colon) [µM] | TGI (OVCAR-8 ovarian) [µM] | TGI (SF-539 CNS) [µM] | TGI (M14 melanoma) [µM] | TGI (SNB-75 CNS) [µM]
1 | O=C(c1ccco1)N(Cc1ccco1)C(=S)Nc1ccccc1 | > 76.8 | 54.1 | 55.3 | 85.3 | 30.3 | > 96.5 | 22.7 | 31.9 | 98.1 | > 77.4 | 42.2 | 35.9 | 91 | 42.1 | 57.6 | 30.7 | 59.7 | 15.4 | 28.5 | > 74.9
2 | COc1ccc(N(CN2C(=O)CCC2C(=O)O)C(C)=O)cc1 (configuration not stated) | > 100 | > 100 | > 100 | > 100 | > 100 | > 100 | > 100 | – | > 100 | > 100 | – | > 100 | > 100 | > 100 | > 100 | > 100 | > 100 | > 100 | > 100 | > 100
3 | Cc1cc(NS(=O)(=O)c2ccc(NC(=O)c3ccc4[nH]c5ccccc5c(=O)c4c3)cc2)no1 | > 100 | > 100 | > 100 | > 100 | > 100 | > 100 | > 100 | 90.7 | > 100 | > 100 | > 100 | > 100 | > 100 | > 100 | > 100 | > 100 | > 100 | > 100 | > 100 | > 100
4 | O=[N+]([O-])c1ccc2[nH]nc(OCc3ccccn3)c2c1 | > 100 | > 100 | > 100 | > 100 | > 100 | > 100 | > 100 | > 100 | > 100 | > 100 | > 100 | > 100 | > 100 | > 100 | > 100 | > 100 | > 100 | > 100 | > 100 | > 100
5 | COc1ccc(NC(=O)CC(=O)N2N=C(c3ccccc3)C(N=Nc3ccc(S(=O)(=O)CCOS(=O)(=O)O)cc3)C2=O)cc1 (configuration not stated) | > 100 | > 100 | > 100 | > 100 | > 100 | > 100 | > 100 | > 100 | > 100 | > 100 | > 100 | > 100 | > 100 | > 100 | > 100 | > 100 | > 100 | > 100 | > 100 | > 100
6 | CC(C)(C)OC(=O)CC(NC(=O)OC(C)(C)C)C(=O)N[C@@H]1CCCC[C@H]1C(=O)OCc1ccccc1 (some centres not stated) | 93.4 | 59.3 | > 100 | > 100 | > 100 | > 100 | > 100 | > 100 | 64.7 | 79.6 | > 100 | 24.5 | 61.4 | 59.1 | 89.4 | 52.5 | > 100 | 64 | > 100 | > 100
7 | CC(=O)N1CN2C(=O)CCC2c2ccccc21 (configuration not stated) | > 100 | > 100 | > 100 | > 100 | > 100 | > 100 | > 100 | > 100 | > 100 | > 100 | > 100 | > 100 | > 100 | > 100 | > 100 | > 100 | > 100 | > 100 | > 100 | > 100
8 | COc1cc(OC)cc(OCc2ccc3nc(-c4ccccc4)c(Cl)nc3c2)c1 | > 100 | > 100 | 67.8 | > 100 | 66.4 | > 100 | 28.3 | – | > 100 | 55.6 | 66.4 | 69.9 | 59.9 | > 100 | > 100 | > 100 | 95.9 | 49.9 | > 100 | 37.4
9 | CCN(CC)c1ccc(/C=C2/C[N+](C)(C)C/C(=C/c3ccc(N(CC)CC)cc3)C2=O)cc1 | > 100 | 11.3 | > 100 | 11.2 | 4.8 | 75.7 | 13.6 | 10.3 | 6.25 | 61.8 | 6.57 | 3.62 | 9.24 | 5.2 | 6 | 7.77 | 14.7 | 6.19 | 7.07 | 8.88
10 | S=C1Cc2c(-c3ccc(Cl)cc3)cc(-c3ccccc3)nc2-c2ccccc2N1 | 25.5 | > 100 | 48.6 | 34.6 | 26.7 | 54.9 | 21.8 | 21.9 | > 100 | 30.2 | 14 | > 100 | > 100 | 21.6 | 36.1 | 28.8 | 8.04 | 16.2 | 49 | 17.4
11 | O=C(NCCCCN(CCCNC(=O)C(F)(F)F)Cc1ccc2ccccc2c1)C(F)(F)F | > 100 | 40.2 | 32.7 | 31.9 | 67.1 | 35.8 | 30.6 | 52.9 | 26.8 | 47.9 | 32.9 | 48.9 | 67.2 | 26.6 | 33.9 | 33.9 | 36.1 | 29.8 | 30.3 | 28.5
12 | C=C1[C@H](OC(=O)C(C)C)[C@]23CC4(O)[C@@H]5[C@@]6(C)CCC[C@]57C([C@@H]2C[C@@]1(O)[C@H](O)[C@@H]73)N4C6 | > 100 | > 100 | > 100 | > 100 | > 100 | > 100 | > 100 | > 100 | 72.3 | > 100 | > 100 | > 100 | > 100 | > 100 | > 100 | > 100 | > 100 | > 100 | > 100 | > 100
13 | CN(C)c1ccc(/C=C(\NC(=O)c2ccccc2)C(=O)NCC(=O)O)cc1 | > 100 | > 100 | > 100 | > 100 | > 100 | > 100 | > 100 | > 100 | > 100 | – | > 100 | > 100 | > 100 | > 100 | > 100 | > 100 | > 100 | > 100 | > 100 | > 100
14 | Cc1n[nH]c(=O)n1C1CCCC1 | > 100 | > 100 | > 100 | > 100 | > 100 | > 100 | > 100 | > 100 | > 100 | > 100 | > 100 | > 100 | > 100 | > 100 | > 100 | > 100 | > 100 | > 100 | > 100 | > 100
15 | CCCN1CC=C(c2cc(C(=O)OCC)[nH]c2-c2cc(C)no2)C1=O | > 100 | > 100 | > 100 | > 100 | > 100 | > 100 | > 100 | > 100 | > 100 | – | > 100 | > 100 | > 100 | > 100 | > 100 | > 100 | > 100 | > 100 | > 100 | > 100
16 | O=c1[nH]cnc2c1sc1nc3ccccc3n12 | > 100 | > 100 | > 100 | > 100 | > 100 | > 100 | > 100 | 84.4 | > 100 | > 100 | > 100 | > 100 | > 100 | > 100 | > 100 | > 100 | > 100 | > 100 | > 100 | > 100
17 | CCOC(=O)C1C(c2ccc(OC)cc2)c2c([nH]n(-c3ccccc3)c2=O)CC1(O)OCC (configuration not stated) | > 100 | > 100 | > 100 | > 100 | > 100 | > 100 | > 100 | – | > 100 | > 100 | > 100 | > 100 | > 100 | > 100 | > 100 | > 100 | > 100 | > 100 | > 100 | > 100
18 | COC(=O)[C@H](Cc1ccccc1)NC(=O)N1CCCN(C(=O)N[C@@H](Cc2ccccc2)C(=O)OC)CCCN(C(=O)N[C@@H](Cc2ccccc2)C(=O)OC)CCC1 | 76.4 | 34.8 | 74.7 | 34 | 30.3 | 53.5 | 32.1 | 32.6 | 38.6 | 65.4 | 31.3 | 35.9 | 32.8 | 33.5 | 35.5 | 38.9 | 47.2 | – | 32.4 | 30.6
19 | N#CC1Cc2cc3c(cc21)OCO3 (configuration not stated) | > 100 | > 100 | > 100 | – | > 100 | > 100 | > 100 | – | > 100 | > 100 | > 100 | > 100 | > 100 | > 100 | > 100 | > 100 | > 100 | > 100 | > 100 | > 100
20 | COC(=O)C1=C(C(=O)OC)C(Cc2ccccc2)(OO)OC1=O (configuration not stated) | > 100 | > 100 | > 100 | – | 42.4 | 37.3 | > 100 | 32.8 | > 100 | 15 | 24.5 | > 100 | 67.9 | 24.2 | > 100 | > 100 | > 100 | 17.1 | > 100 | 49.6
21 | O=S(=O)(O)CCCC1S(=O)(=O)OCCOS1(=O)=O | – | > 100 | > 100 | > 100 | > 100 | > 100 | > 100 | > 100 | > 100 | > 100 | > 100 | > 100 | > 100 | > 100 | > 100 | > 100 | > 100 | > 100 | > 100 | > 100
22 | COC(=O)[C@@H]1C=C[C@H](OC2OC(COC(C)=O)C(OC(C)=O)C(OC(C)=O)C2OC(C)=O)n2c(=O)c3ccccc3c(=O)n21 (some centres not stated) | 47.4 | 20.9 | 56.7 | – | 23.7 | 30.5 | 58.9 | 20.1 | 29.6 | 18.3 | 33.3 | 30.2 | 25.1 | 60.9 | 51.2 | 22.8 | 49 | 33.7 | 36.9 | 20.6
23 | O=c1[nH]c2ccc(Cl)cc2c2oc(-c3ccccc3)nc12 | 54.3 | 50.4 | 86.6 | > 100 | 52.2 | 89.8 | 30 | 71.8 | 79 | 80.7 | > 100 | 85.8 | 36.8 | > 100 | > 100 | 32.8 | 24.8 | > 100 | > 100 | –
